How the values were obtained:
[1] = target: αvβ5 (Homo sapiens, UniProt P06756+P18084); conditions: cited from earlier work
[2] = target: α5β1 (Homo sapiens, UniProt P05556+P08648); conditions: cited from earlier work
[3] = target: T1, folate binding protein (FBP) (Bos taurus, UniProt P02702); experiment: Affinity for Folate Binding Protein (FBP) by the BiaCore technique; conditions: immobilized FBP
T1 construct: purchased Sigma F-0504
Description: 1/ Assay for Affinity of Example 17 for Folate Binding Protein (FBP) by the BiaCore Technique
PGM buffer: 100 mM KH2PO4, pH 7, 10% glycerol and 4 mM β-mercaptoethanol.
The immobilization of the FBP was carried out at 1 mg/ml in the PGM buffer according to the protocols recommended by BIAcore for coupling to amines. After this, the remaining active carboxylated groups are saturated with 1M of ethanolamine pH=8. The amount of FBP attached corresponds approximately to 1.5 ng/mm^2.
Example 17 was at a concentration of 0.170 mol/L of iron, which corresponds to 1.9×10^−5 mol of particles/L (considering a crystal of 7.5 nm, i.e. 8900 atoms of iron/particle).
The attachment of the folate was followed at four different concentrations (125, 250, 500 and 1000 μM) whereas that of example 17 was carried out at […] and at 10 nM (expressed as mol of particle/L). The association and the dissociation were studied with a flow at 25 μl/min. The association and dissociation phases are 5 minutes.

[4] = target: T2, human MMP-3 (Homo sapiens, UniProt P08254); experiment: Inhibitory effect on human MMP-3 activity, fluorimetry; type: biochemical; conditions: MMP-3, reference product
T2 construct: host or cells: sF9 (insect) cell line
T2 sequence (P08254 100-477): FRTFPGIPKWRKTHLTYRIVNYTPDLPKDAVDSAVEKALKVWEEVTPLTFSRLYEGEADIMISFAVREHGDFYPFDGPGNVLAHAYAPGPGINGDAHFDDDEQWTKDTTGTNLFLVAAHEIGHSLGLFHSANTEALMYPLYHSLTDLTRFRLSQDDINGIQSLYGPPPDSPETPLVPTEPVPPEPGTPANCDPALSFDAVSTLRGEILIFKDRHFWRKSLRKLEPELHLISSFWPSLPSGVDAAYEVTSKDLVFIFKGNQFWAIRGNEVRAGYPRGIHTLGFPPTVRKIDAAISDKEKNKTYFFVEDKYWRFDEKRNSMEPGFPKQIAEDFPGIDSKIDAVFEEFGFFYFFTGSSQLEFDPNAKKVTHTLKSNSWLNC
Description: More precisely, the test product, or the reference product or water, was added to a buffer solution, at pH=6, containing 6 nM of MMP-3. The fluorescence of this medium was evaluated at λex=340 nm and λem=405 nm by means of a plate reader (GeminiXS, Molecular Devices), after preincubation for 30 min at 37° C. (t=0). This measurement at t=0 serves to verify any possible interference of a product with the fluorescent detection. The enzyme reaction was then initiated by adding 10 μm of the substrate NFF-2. After incubation for 90 min at 37° C., the fluorescence was again evaluated under the same conditions as previously (t=90 min). The enzyme activity was then determined by subtracting the signal measured at t=0 from the signal measured at t=90 min.
The final result is expressed as percentage inhibition of the enzyme activity.

T1 sequence (P02702 20-234): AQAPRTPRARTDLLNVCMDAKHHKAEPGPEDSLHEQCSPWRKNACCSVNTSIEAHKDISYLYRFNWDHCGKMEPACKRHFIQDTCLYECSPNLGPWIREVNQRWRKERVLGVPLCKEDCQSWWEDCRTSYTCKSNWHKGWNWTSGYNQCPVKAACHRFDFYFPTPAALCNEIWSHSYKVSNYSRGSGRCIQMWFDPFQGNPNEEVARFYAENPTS
Sequence of αvβ5 (P06756 31-1048): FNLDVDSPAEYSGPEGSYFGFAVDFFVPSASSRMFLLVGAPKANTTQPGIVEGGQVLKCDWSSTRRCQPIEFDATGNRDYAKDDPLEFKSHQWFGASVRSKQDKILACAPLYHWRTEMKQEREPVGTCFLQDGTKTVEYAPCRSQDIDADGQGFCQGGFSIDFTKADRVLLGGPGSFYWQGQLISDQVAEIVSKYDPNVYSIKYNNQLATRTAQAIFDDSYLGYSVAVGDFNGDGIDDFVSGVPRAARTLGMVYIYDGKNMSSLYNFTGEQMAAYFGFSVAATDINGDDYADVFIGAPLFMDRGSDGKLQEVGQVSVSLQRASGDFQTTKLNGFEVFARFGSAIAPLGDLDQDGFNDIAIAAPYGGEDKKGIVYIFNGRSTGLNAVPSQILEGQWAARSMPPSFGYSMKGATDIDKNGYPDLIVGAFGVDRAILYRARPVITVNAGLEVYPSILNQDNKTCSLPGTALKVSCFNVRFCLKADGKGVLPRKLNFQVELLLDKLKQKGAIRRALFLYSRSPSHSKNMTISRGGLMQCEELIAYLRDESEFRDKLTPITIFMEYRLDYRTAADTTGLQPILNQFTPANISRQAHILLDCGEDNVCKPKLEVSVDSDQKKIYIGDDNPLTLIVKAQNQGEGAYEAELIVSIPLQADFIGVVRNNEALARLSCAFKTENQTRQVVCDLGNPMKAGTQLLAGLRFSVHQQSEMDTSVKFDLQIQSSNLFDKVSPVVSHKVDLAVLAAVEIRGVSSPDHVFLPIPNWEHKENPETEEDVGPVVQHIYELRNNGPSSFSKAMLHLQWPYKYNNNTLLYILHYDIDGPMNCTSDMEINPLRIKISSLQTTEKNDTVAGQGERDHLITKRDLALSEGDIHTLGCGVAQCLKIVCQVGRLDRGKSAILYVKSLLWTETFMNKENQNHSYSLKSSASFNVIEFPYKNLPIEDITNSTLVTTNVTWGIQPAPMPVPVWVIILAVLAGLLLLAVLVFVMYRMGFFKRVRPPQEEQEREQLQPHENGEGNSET
Sequence of αvβ5 (P18084 24-799): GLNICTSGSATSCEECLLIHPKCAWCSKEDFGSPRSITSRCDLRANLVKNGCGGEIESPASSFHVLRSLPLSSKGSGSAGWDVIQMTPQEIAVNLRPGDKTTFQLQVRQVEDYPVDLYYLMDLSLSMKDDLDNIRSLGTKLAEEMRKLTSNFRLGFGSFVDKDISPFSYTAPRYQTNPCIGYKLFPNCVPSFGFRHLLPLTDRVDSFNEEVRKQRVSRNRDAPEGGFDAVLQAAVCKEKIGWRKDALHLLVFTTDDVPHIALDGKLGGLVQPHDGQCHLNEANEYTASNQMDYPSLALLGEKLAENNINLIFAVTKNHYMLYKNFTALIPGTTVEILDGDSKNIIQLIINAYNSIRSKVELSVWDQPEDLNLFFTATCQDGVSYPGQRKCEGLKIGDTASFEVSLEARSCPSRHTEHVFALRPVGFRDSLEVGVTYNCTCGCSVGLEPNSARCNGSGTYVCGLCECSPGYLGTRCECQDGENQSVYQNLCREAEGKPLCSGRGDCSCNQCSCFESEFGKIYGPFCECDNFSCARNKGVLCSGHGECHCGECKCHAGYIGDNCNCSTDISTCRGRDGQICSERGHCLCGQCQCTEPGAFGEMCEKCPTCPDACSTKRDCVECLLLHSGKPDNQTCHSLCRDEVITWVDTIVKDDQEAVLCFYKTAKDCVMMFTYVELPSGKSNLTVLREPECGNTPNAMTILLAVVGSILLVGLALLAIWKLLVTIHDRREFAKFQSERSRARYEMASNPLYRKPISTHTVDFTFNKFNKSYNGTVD
Sequence of α5β1 (P08648 42-1049): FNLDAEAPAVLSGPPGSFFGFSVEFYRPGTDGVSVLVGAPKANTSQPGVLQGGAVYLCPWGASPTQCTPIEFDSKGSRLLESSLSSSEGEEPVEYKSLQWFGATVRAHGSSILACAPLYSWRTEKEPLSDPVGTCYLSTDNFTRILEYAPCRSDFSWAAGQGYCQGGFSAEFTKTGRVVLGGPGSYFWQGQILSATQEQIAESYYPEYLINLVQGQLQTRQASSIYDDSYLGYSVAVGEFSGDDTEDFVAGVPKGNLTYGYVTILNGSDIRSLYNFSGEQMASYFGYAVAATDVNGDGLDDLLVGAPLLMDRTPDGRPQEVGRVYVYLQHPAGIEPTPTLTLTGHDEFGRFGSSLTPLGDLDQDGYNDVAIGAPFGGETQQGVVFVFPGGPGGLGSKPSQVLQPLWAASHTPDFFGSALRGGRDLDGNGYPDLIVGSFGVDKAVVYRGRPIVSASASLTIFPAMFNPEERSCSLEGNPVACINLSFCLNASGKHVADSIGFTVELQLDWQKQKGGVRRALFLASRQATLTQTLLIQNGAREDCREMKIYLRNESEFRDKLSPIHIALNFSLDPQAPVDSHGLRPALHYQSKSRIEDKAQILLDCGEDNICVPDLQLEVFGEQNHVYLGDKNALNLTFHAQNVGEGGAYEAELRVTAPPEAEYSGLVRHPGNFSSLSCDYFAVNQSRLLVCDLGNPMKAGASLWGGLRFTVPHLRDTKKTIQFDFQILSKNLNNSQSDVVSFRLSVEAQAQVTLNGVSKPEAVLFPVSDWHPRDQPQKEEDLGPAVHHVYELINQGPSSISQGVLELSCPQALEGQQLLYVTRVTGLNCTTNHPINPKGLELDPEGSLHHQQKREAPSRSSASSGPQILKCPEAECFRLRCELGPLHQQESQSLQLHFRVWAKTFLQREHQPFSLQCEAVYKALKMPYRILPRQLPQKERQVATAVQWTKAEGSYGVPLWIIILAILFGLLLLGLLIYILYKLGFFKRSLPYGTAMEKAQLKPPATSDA
Sequence of α5β1 (P05556 21-798): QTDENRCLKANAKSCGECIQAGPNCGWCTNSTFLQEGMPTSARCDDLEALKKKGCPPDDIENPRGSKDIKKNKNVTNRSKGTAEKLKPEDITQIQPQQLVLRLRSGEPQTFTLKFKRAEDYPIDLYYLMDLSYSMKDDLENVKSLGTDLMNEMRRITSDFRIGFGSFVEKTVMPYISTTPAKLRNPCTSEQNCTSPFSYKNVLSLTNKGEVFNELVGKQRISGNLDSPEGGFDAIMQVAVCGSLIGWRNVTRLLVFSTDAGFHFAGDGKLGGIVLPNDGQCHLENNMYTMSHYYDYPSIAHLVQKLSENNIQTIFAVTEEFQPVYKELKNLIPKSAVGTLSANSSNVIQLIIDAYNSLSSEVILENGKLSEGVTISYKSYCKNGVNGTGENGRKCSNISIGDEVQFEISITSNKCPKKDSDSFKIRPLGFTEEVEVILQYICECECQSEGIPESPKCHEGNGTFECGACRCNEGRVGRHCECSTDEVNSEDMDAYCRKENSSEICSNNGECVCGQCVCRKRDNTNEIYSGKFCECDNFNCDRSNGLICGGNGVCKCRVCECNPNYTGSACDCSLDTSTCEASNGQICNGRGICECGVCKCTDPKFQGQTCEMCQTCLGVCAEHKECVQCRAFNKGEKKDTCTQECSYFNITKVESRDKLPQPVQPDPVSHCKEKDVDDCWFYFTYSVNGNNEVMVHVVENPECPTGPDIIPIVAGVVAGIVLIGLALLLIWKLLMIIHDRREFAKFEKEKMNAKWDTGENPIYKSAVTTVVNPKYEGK

cyclo(ARGD-Mamb) [XJ735]
blocking of other integrins [1]: does not block
blocking of other integrins [2]: does not block

Nc1nc2ncc(CNc3ccc(C(=O)N[C@@H](CCC(=O)O)C(=O)O)cc3)nc2c(=O)[nH]1 [Folic acid]
kon ([3]; flow 25 μl/min, read-out: Association rate ka): 1000 M⁻¹ s⁻¹
koff ([3]; flow 25 μl/min, read-out: Dissociation rate kd): 0.0016 s⁻¹
Kd ([3]; read-out: Affinity constant KD): 1600 nM

CNC(=O)[C@H](Cc1c[nH]c2ccccc12)NC(=O)[C@@H](CC(=O)NO)CC(C)C [Ilomastat]
IC50 [4]: 130 nM

Source: patent publication US20100297025A1, “Novel compositions magnetic particles covered with gem-bisphosphonate derivatives” (Guerbet., priority 2002, published 2010)
